Results from patent US20090143361A1, “Pyrido[3,2-E]Pyrazines, Process For Preparing The Same, And Their Use As Inhibitors Of Phosphodiesterase 10” (ELBION GMBH, priority 2007, published 2009).
pIC50: −log10 of the molar value. Read-outs that look alike come from different tables or passages of the source.

Target: T1, human recombinant PDE10A (Homo sapiens, UniProt Q9Y233)
T1 construct: made in house; host or cells: SF21 insect cells (baculovirus)
Test: Inhibition of PDE10, human recombinant PDE10A ([3H]-cAMP SPA)
Assay type: biochemical
Settings: for pIC50: Table 9, read-out: hPDE10 IC50
Protocol: The gene was than inserted into a baculovirus vector, ligated with the baculovirus DNA. The enzyme-protein was expressed in SF21-cells. The enzyme was isolated from these cells by harvesting the cells by a centrifugation at 200 g to collect the cells. The cells were resuspended in 50 mM Tris-HCl/5 mM MgCl2 buffer (pH=7.4) and lysed by a sonication of the cells. The cytosolic PDE10A was obtained by a centrifugation at 48000 g for 1 h in the supernatant and stored at −70° C. PDE10 activity was determined in a one step procedure in microtiterplates. […] Nonspecific activity was tested without the enzyme. The reaction was initiated by addition of the substrate solution and was carried out at 37° C. for 30 minutes. Enzymatic activity was stopped by addition of 25 μl YSi-SPA-beads (Amersham-Pharmacia). One hour later the mixture was measured in a liquid scintillation counter for microtiterplates (Microbeta Trilux). To pipette the incubation mixture a robot Biomek (Fa. Beckman) is used. […] For determination of IC50 values the Hill-plot, 2-parameter-model, was used.

[1] = Table 7, read-out: Human PDE10 (IC50 nM)

T1 sequence (Q9Y233 1-779 isoform Q9Y233-1): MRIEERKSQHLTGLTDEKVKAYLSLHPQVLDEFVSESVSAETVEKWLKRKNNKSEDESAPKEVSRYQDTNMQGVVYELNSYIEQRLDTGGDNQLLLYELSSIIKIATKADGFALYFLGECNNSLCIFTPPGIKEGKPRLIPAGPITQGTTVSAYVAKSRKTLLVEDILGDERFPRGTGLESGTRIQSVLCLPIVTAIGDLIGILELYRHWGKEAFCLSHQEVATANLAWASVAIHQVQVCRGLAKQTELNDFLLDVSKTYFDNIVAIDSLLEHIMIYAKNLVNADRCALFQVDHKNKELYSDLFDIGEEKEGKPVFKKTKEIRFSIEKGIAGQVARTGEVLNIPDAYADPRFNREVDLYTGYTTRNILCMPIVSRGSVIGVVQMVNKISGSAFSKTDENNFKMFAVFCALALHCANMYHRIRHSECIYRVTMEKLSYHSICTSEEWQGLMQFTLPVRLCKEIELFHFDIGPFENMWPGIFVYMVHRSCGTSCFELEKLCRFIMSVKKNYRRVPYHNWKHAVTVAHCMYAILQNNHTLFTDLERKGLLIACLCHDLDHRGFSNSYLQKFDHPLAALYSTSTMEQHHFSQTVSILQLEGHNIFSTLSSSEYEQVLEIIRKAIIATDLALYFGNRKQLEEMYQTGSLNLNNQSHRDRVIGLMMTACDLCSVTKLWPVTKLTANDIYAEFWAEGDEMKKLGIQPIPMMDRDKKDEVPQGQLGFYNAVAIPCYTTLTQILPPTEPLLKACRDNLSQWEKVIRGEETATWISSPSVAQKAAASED

IC50 [1]	pIC50	further results	Structure (SMILES)
10 to 100 nM	–	–	COc1ccc2nc(C)c3c(C)nc(-c4ccc(Cl)cc4F)n3c2n1 [Example 17, 9-(4-Chloro-2-fluorophenyl)-2-methoxy-6,7-dimethylimidazo[1,5-a]pyrido[3,2-e]pyrazine]
10 to 100 nM	–	–	COc1ccc2nc(C)c3c(C)nc(-c4cnc(F)c(C)c4)n3c2n1 [Example 33, 9-(6-Fluoro-5-methylpyridin-3-yl)-2-methoxy-6,7-dimethylimidazo[1,5-a]pyrido[3,2-e]pyrazine]
> 100 nM	–	–	COc1ccc2nc(C)c3c(C(F)(F)F)nc(-c4cnccc4OC)n3c2n1 [Example 34, 2-Methoxy-9-(4-methoxypyridin-3-yl)-6-methyl-7-(trifluoromethyl)imidazo[1,5-a]pyrido[3,2-e]pyrazine]
10 to 100 nM	–	–	COc1ccc2nc(C)c3c(C(F)(F)F)nc(-c4cc(C(N)=O)ccc4F)n3c2n1 [Example 36, 4-Fluoro-3-[2-methoxy-6-methyl-7-(trifluoromethyl)imidazo[1,5-a]pyrido[3,2-e]pyrazin-9-yl]benzamide]
10 to 100 nM	–	–	COc1ccc2nc(N)c3c(C(F)(F)F)nc(-c4ccccc4C)n3c2n1 [Example 38, 2-Methoxy-9-(2-methylphenyl)-7-(trifluoromethyl)imidazo[1,5-a]pyrido[3,2-e]pyrazin-6-amine]
< 10 nM	–	–	COc1ccc2nc(NS(C)(=O)=O)c3c(C(F)(F)F)nc(-c4ccccc4C)n3c2n1 [Example 39, N-[2-Methoxy-9-(2-methylphenyl)-7-(trifluoromethyl)imidazo[1,5-a]pyrido[3,2-e]pyrazin-6-yl]methanesulfonamide]
10 to 100 nM	–	–	COc1ccc2nc(C#N)c3c(C)nc(-c4cc(Cl)ccc4Cl)n3c2n1 [Example 40, 9-(2,5-Dichlorophenyl)-2-methoxy-7-methylimidazo[1,5-a]pyrido[3,2-e]pyrazine-6-carbonitrile]
–	–	IC50 (Table 8, cell marked Human PDE10, read-out: IC50 (nM) (Human PDE10)): > 100 nM	CCCc1nc(C)c2c(C)nc3ccc(=O)[nH]c3n12 [Example 46, 6,7-Dimethyl-9-propylimidazo[1,5-a]pyrido[3,2-e]pyrazin-2(1H)-one]
–	> 8.00	–	Cc1ccccc1-c1nc(C)c2c(C)nc3ccc(OCC4CC4)nc3n12 [Example 123, 2-(cyclopropylmethoxy)-6,7-dimethyl-9-(2-methylphenyl)imidazo[1,5-a]pyrido[3,2-e]pyrazine]
–	> 8.00	–	COc1ccc2nc(C)c3c(C)nc(-c4cc(F)cc(C(N)=O)c4)n3c2n1 [Example 129, 3-fluoro-5-(2-methoxy-6,7-dimethylimidazo[1,5-a]pyrido[3,2-e]pyrazin-9-yl)benzamide]
–	> 8.00	–	COc1ccc2nc(C)c3c(C)nc(-c4ccc(F)c(C(N)=O)c4)n3c2n1 [Example 130, 2-fluoro-5-(2-methoxy-6,7-dimethylimidazo[1,5-a]pyrido[3,2-e]pyrazin-9-yl)benzamide]
–	7.00 to 8.00	–	COc1ccc2nc(C)c3c(C)nc(-c4ccc(Cl)c(C(N)=O)c4)n3c2n1 [Example 131, 2-chloro-5-(2-methoxy-6,7-dimethylimidazo[1,5-a]pyrido[3,2-e]pyrazin-9-yl)benzamide]
–	> 8.00	–	COc1ccc2nc(C)c3c(C)nc(-c4ccc(C(N)=O)c(Cl)c4)n3c2n1 [Example 132, 2-chloro-4-(2-methoxy-6,7-dimethylimidazo[1,5-a]pyrido[3,2-e]pyrazin-9-yl)benzamide]
–	< 7.00	–	COc1ccc2nc(C)c3c(C)nc(CC#N)n3c2n1 [Example 133, (2-Methoxy-6,7-dimethylimidazo[1,5-a]pyrido[3,2-e]pyrazin-9-yl)acetonitrile]
–	7.00 to 8.00	–	Cc1ccc(Cl)cc1-c1nc(C)c2c(C)nc3ccc(OCC4CC4)nc3n12 [Example 134, 9-(5-chloro-2-methylphenyl)-2-(cyclopropylmethoxy)-6,7-dimethylimidazo[1,5-a]pyrido[3,2-e]pyrazine]
–	7.00 to 8.00	–	Cc1cc(F)ccc1-c1nc(C)c2c(C)nc3ccc(OCC4CC4)nc3n12 [Example 135, 2-(cyclopropylmethoxy)-9-(4-fluoro-2-methylphenyl)-6,7-dimethylimidazo[1,5-a]pyrido[3,2-e]pyrazine]
